According to PubChem BioAssay (NCI):
“And” between values parts separate entries of the source, which are not always exact repeats. Identical values can stand only once.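 Five concentrations, 48 hours, 96-well plates. GI50 = concentration required for 50% inhibition of growth. TGI: total growth inhibition.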 Where a SMILES comes first, the peptide text is derived from it. The star is where a group is joined. Boc = CC(C)(C)OC(=O)*

Assays:
Experiment in all cases: NCI-60 cell line screen, 48 h
SNB-19 CNS = test system: SNB-19 CNS
K-562 leukemia = test system: K-562 leukemia
ACHN renal = test system: ACHN renal
SN12C renal = test system: SN12C renal
LOX IMVI melanoma = test system: LOX IMVI melanoma
UO-31 renal = test system: UO-31 renal
MALME-3M melanoma = test system: MALME-3M melanoma
M14 melanoma = test system: M14 melanoma
T-47D breast = test system: T-47D breast
HCT-116 colon = test system: HCT-116 colon

Compound	GI50 (SNB-19 CNS) [µM]	TGI (SNB-19 CNS)	GI50 (K-562 leukemia)	TGI (K-562 leukemia)	GI50 (ACHN renal) [µM]	TGI (ACHN renal)	GI50 (SN12C renal)	TGI (SN12C renal)	GI50 (LOX IMVI melanoma)	TGI (LOX IMVI melanoma)	GI50 (UO-31 renal) [µM]	TGI (UO-31 renal)	GI50 (MALME-3M melanoma) [µM]	TGI (MALME-3M melanoma)	GI50 (M14 melanoma) [µM]	TGI (M14 melanoma)	GI50 (T-47D breast) [µM]	TGI (T-47D breast)	GI50 (HCT-116 colon)	TGI (HCT-116 colon)
COC(=O)c1ccc2c(c1)/C(=C\c1cc(Br)c(O)c(Br)c1)C(=O)N2	12.4	> 25 µM	8.14 µM	> 25 µM	6.27	> 25 µM	10 µM	> 25 µM	4.13 µM	> 25 µM	6.84	> 25 µM	2.08	13.8 µM	1.88	9.23 µM	8.72	> 25 µM	8.29 µM	> 25 µM
COC(=O)c1cc2c(s1)-c1nccc3c1c(nc1ccccc13)C2=O	> 100	> 100 µM	> 100 µM	> 100 µM	> 100	> 100 µM	> 100 µM	> 100 µM	29 µM	> 100 µM	> 100	> 100 µM	16.4	59.5 µM	97.7	> 100 µM	62.8	> 100 µM	> 100 µM	> 100 µM
C#Cc1nc(Nc2cc(C)[nH]n2)c2ccccc2n1	2.27	81.1 µM	0.349 µM	> 100 µM	0.257	1.71 µM	0.236 µM	0.726 µM	0.151 µM	0.308 µM	0.222	0.792 µM	0.295	0.915 µM	0.232	0.559 µM	0.39	2.11 µM	0.248 µM	0.951 µM
S=c1[nH]c2c(Cl)c(Cl)c(Cl)c(Cl)c2[nH]1		81.3 µM		38.4 µM		40.7 µM		47 µM		40.8 µM		43.2 µM		38.5 µM		54.3 µM		> 100 µM		46.8 µM
C/C(=N\NC(=S)N1CCCCCC1)c1ccccn1	0.101	4.38 µM and 6.44 µM		1.92 µM and 4.53 µM		5.45 µM and 2.73 µM	0.0246 µM	4.31 µM and 5.6 µM		4.37 µM and 1.37 µM	0.134	4.01 µM and 4.33 µM	0.0966	1.17 µM and 1.72 µM	0.0103	1.56 µM and 0.74 µM		8.43 µM and 7.58 µM		3.16 µM and 4.28 µM
CCOC(=O)/C=C/c1ccc(C#Cc2ccccc2)cc1	> 100	> 100 µM	72 µM	> 100 µM	> 100	> 100 µM	> 100 µM	> 100 µM	> 100 µM	> 100 µM	38.4	> 100 µM	98.3	> 100 µM	> 100	> 100 µM	86.8	> 100 µM	> 100 µM	> 100 µM
C[C@@]12CCC[C@@](C)(C(=O)O)C1CC[C@]13CC(=O)[C@](CO)(C1)[C@@H](O)CC32 (stereo partly specified)	> 100	> 100 µM	> 100 µM	> 100 µM	> 100	> 100 µM	> 100 µM	> 100 µM	> 100 µM	> 100 µM	> 100	> 100 µM	> 100	> 100 µM	> 100	> 100 µM	> 100	> 100 µM	> 100 µM	> 100 µM
CC(C)=CCc1cc(O)cc2c1OC(C=C(C)C)C1=C2C(=O)C2=C(C1=O)S(=O)(=O)CCN2 (stereo unspecified)	2.78	5.15 µM	4.68 µM	> 16.7 µM	6.14	> 16.7 µM	2.7 µM	5.45 µM	3.48 µM	10.2 µM	6.23	> 16.7 µM	1.69	3.64 µM	2.92	5.59 µM	3.57	12.7 µM	2.97 µM	7.14 µM
Cc1ccc(Nc2oc(-c3ccccc3)nc2[P+](c2ccccc2)(c2ccccc2)c2ccccc2)cc1	1.04	2.94 µM	0.324 µM	1.44 µM	0.988	2.76 µM	0.888 µM	2.51 µM	0.833 µM	2.11 µM	0.44	1.65 µM	0.459	1.43 µM	0.728	2.11 µM	0.43	2.33 µM	0.377 µM	1.39 µM
CC12CCC3c4ccc(O)cc4CCC3C1C/C(=N\O)C2O (stereo unspecified)		> 100 µM		> 100 µM		> 100 µM		> 100 µM		> 100 µM		> 100 µM		> 100 µM		> 100 µM		> 100 µM		> 100 µM
CCc1ccc(/C=C/c2ccc(O)c3ncccc23)[n+](C)c1	11.5	> 100 µM	0.517 µM	> 100 µM	> 61.1	> 100 µM	0.457 µM	> 100 µM	35.8 µM	> 100 µM	7.4	> 100 µM	13.7	> 100 µM		> 100 µM	1.66	> 100 µM	4.02 µM	> 100 µM
COc1cc(/C=C/C(=O)c2cccc(-n3cc(-c4ccc(Cl)cc4)[nH]c3=O)c2)ccc1O	3.52	15.6 µM	2.36 µM	> 26.4 µM	2.19	4.95 µM	2.81 µM	> 60.9 µM	1.64 µM	4.03 µM	1.26	> 37 µM	5.99	22.2 µM	3.51	15.2 µM	3.39	17.8 µM	1.57 µM	3.82 µM
COC(=O)C(C)NC(=O)C(CCSC)NC(=O)C(Cc1ccccc1)NC(=O)OC(C)(C)C (stereo not drawn) (Boc-Phe-Met-Ala-OMe; configuration not given here)		> 100 µM	32.7 mg/L	91.2 mg/L		> 100 µM	25.4 mg/L	71.8 µg/mL and > 100 µM	20.3 mg/L	43 µg/mL and > 100 µM		> 100 µM		> 100 µM		> 100 µM		> 100 µM	17.1 mg/L	
O=C(/C=C/C=C/c1ccccc1)c1ccccc1		44.4 µM		66.2 µM				29.7 µM		29.3 µM		38.2 µM		21.6 µM		33.6 µM		48.2 µM		31.4 µM
